A word on the IC50: it is the concentration needed to halve the response being measured. A lower IC50 goes with higher potency. What is called MIC is the lowest concentration that inhibits growth of the organism. Read a low MIC as greater potency.

≈ marks a conversion by molar mass, not a printed value.

Experiment [1] has as its system Staphylococcus aureus. Put plainly: Antibacterial activity against Staphylococcus aureus ATCC 25923 by CLSI protocol based microdilution method. The experiment is classed as functional, organism-based. A general note: Broth dilution looks for growth in wells or tubes with falling amounts of substance.
The test system of experiment [2] is Staphylococcus aureus. Put plainly: Antibacterial activity against Staphylococcus aureus ATCC 6538 by CLSI protocol based microdilution method. The experiment is classed as functional, organism-based.
Experiment [3] concerns Pseudomonas aeruginosa. Put plainly: Antibacterial activity against Pseudomonas aeruginosa ATCC 15442 by CLSI protocol based cup-plate agar diffusion method. The experiment is classed as functional. In general terms: In agar diffusion tests the substance spreads into inoculated agar from a disc or well.
The test system of experiment [4] is Escherichia coli. Put plainly: Antibacterial activity against Escherichia coli MTCC 40 after 7 days by two-fold serial dilution method. The experiment is classed as functional. Conditions: MTCC 40, 168 h, time 7 day.
For experiment [5], the system named is Pseudomonas aeruginosa. Put plainly: Antibacterial activity against Pseudomonas aeruginosa MTCC 2453 after 7 days by two-fold serial dilution method. The experiment is classed as functional. Conditions: MTCC 2453, 168 h, time 7 day.
The test system of experiment [6] is Staphylococcus aureus. The experiment in a line: Antibacterial activity against Staphylococcus aureus MTCC 121 after 7 days by two-fold serial dilution method. The experiment is classed as functional. The note with it: MTCC 121, 168 h, time 7 day.
Experiment [7] concerns Bacillus subtilis. Put plainly: Antibacterial activity against Bacillus subtilis […] after 7 days by two-fold serial dilution method. The experiment is classed as functional. Conditions: 168 h, time 7 day.
Experiment [8] deals with Staphylococcus aureus. Put plainly: Antibacterial activity against Staphylococcus aureus ATCC 49444 after 24 hrs by CLSI protocol based cup-plate agar diffusion method. The experiment is classed as functional.
The next experiment has as its system Listeria monocytogenes. Put plainly: Antibacterial activity against Listeria monocytogenes ATCC 19115 after 24 hrs by CLSI protocol based cup-plate agar diffusion method. The experiment is classed as functional.
The test system of experiment [9] is Pseudomonas aeruginosa. Put plainly: Antibacterial activity against Pseudomonas aeruginosa ATCC 27853 after 24 hrs by CLSI protocol based cup-plate agar diffusion method. The experiment is classed as functional.
For a further experiment, the system named is Salmonella typhimurium. The experiment in a line: Antibacterial activity against Salmonella typhimurium ATCC 14028 after 24 hrs by CLSI protocol based cup-plate agar diffusion method. The experiment is classed as functional, Salmonella enterica subsp. enterica serovar Typhimurium. The note with it: Salmonella enterica.
For experiment [10], the system named is Enterococcus faecalis. Put plainly: Antibacterial activity against Enterococcus faecalis ATCC 19433 by NCCLS protocol based broth microdilution method.
Experiment [11] deals with Staphylococcus aureus. The experiment in a line: Antibacterial activity against Staphylococcus aureus. The experiment is classed as functional.
In experiment [12] the test system is Bacillus subtilis. The experiment in a line: Antibacterial activity against Bacillus subtilis. The experiment is classed as functional.
For experiment [13], the system named is Pseudomonas aeruginosa. Put plainly: Antibacterial activity against Pseudomonas aeruginosa. The experiment is classed as functional.
In experiment [14] the test system is Staphylococcus aureus. The experiment in a line: Antibacterial activity against Staphylococcus aureus MLS16. The experiment is classed as functional.
A further experiment relates to Micrococcus luteus. The experiment in a line: Antibacterial activity against Micrococcus luteus. The experiment is classed as functional.
The next experiment has as its system Raoultella planticola. Put plainly: Antibacterial activity against Klebsiella planticola. The experiment is classed as functional.
For experiment [15], the system named is Escherichia coli. The experiment in a line: Antibacterial activity against Escherichia coli. The experiment is classed as functional.
Experiment [16] has as its system Enterococcus faecalis. Put plainly: Antibacterial activity against Enterococcus faecalis. The experiment is classed as functional.
For experiment [17], the system named is Staphylococcus saprophyticus. The experiment in a line: Antibacterial activity against Staphylococcus saprophyticus. The experiment is classed as functional.
Experiment [18] concerns Enterococcus faecalis. The experiment in a line: Antibiofilm activity against Enterococcus faecalis. The experiment is classed as functional.

`COCCn1cc(-c2nc(-c3c[nH]c4ccccc34)cs2)c2cc(Br)ccc21`: the IC50 in the experiment on Staphylococcus aureus [1] was determined as 0.79 µg/mL (≈ 1.75 µM); in the experiment on Staphylococcus aureus [2] it was 9.4 µg/mL (≈ 20.8 µM). The compound also displayed a minimum inhibitory concentration (MIC) against Pseudomonas aeruginosa [3] of 4.4 µg/mL (≈ 9.73 µM).
`O=C(NN1C(=O)/C(=C/c2cccc(Br)c2)SC1c1cccc(Br)c1)c1ccc(-c2ccccc2)cc1` (stereo not given): the MIC against Escherichia coli [4] is 6.25 µg/mL (≈ 10.1 µM); in the experiment with Pseudomonas aeruginosa [5], 6.25 µg/mL (≈ 10.1 µM); with Staphylococcus aureus [6] it was 3.12 µg/mL (≈ 5.03 µM); with Bacillus subtilis [7], 3.12 µg/mL (≈ 5.03 µM).
Regarding `CCN(CC)c1ccc(/C=N\n2c(S)nnc2-c2sc(-c3ccccc3)nc2C)cc1`, the MIC against Staphylococcus aureus [8] was determined as 31.2 µg/mL (≈ 69.5 µM); with Listeria monocytogenes it was 1.9 µg/mL (≈ 4.24 µM); with Pseudomonas aeruginosa [9], 1.9 µg/mL (≈ 4.24 µM); in the experiment with Salmonella typhimurium it was 62.5 µg/mL (≈ 139 µM).
As for `COc1ccc(/C=C2\SC(c3cccc(Br)c3)N(NC(=O)c3ccc(-c4ccccc4)cc3)C2=O)cc1` (stereo not given), the minimum inhibitory concentration (MIC) in the experiment with Escherichia coli [4] came to 1.56 µg/mL (≈ 2.73 µM); in the experiment with Pseudomonas aeruginosa [5], 12.5 µg/mL (≈ 21.9 µM); in the experiment with Staphylococcus aureus [6], 3.12 µg/mL (≈ 5.46 µM); against Bacillus subtilis [7], 1.56 µg/mL (≈ 2.73 µM).
For `Nc1ccc2c(Cl)c(C(=O)Nc3nc4ccccc4s3)sc2c1`, the minimal inhibitory concentration (MIC) against Enterococcus faecalis [10] worked out at 8 µg/mL (≈ 22.2 µM).
For the compound `O=c1oc2ccccc2cc1-c1nn(-c2nc3ccccc3s2)cc1/C=N/Nc1nc(-c2ccc(-c3ccccc3)cc2)cs1`, the MIC was determined as 7.8 µg/mL (≈ 12.5 µM) against Staphylococcus aureus [11]; 7.8 µg/mL (≈ 12.5 µM) against Bacillus subtilis [12]; 7.8 µg/mL (≈ 12.5 µM) in the experiment with Pseudomonas aeruginosa [13]; 7.8 µg/mL (≈ 12.5 µM) against Staphylococcus aureus [14]; 7.8 µg/mL (≈ 12.5 µM) against Micrococcus luteus; 31.2 µg/mL (≈ 50.1 µM) with Raoultella planticola. In the experiment with Escherichia coli [15], this compound displayed a minimal inhibitory concentration (MIC) of 7.8 µg/mL (≈ 12.5 µM).
As for `COCCn1cc(-c2nc(-c3cn(C)c4ccccc34)cs2)c2cc(F)ccc21`, the IC50 worked out at 0.2 µg/mL (≈ 0.493 µM) with Staphylococcus aureus [1] and 21 µg/mL (≈ 51.8 µM) with Staphylococcus aureus [2].
Turning to `Cl.Nc1ccc2c(Cl)c(C(=O)Nc3nc4ccccc4s3)sc2c1`, in the experiment with Enterococcus faecalis [10], the MIC amounted to 16 µg/mL.
The same measure, in the same setting: next, `Cl.Nc1ccc2sc(NC(=O)c3sc4ccccc4c3Cl)nc2c1`: 8 µg/mL.
As to `Cn1cc(-c2csc(-c3cn(CCN)c4ccc(F)cc34)n2)c2ccccc21`, the values for the concentration for half-maximal inhibition (IC50) in the experiment on Staphylococcus aureus [1] and in the experiment with Staphylococcus aureus [2] were 0.5 µg/mL (≈ 1.28 µM) and 5.2 µg/mL (≈ 13.3 µM), respectively. The minimal inhibitory concentration (MIC) in the experiment with Pseudomonas aeruginosa [3] is 3.9 µg/mL (≈ 9.99 µM).
Regarding `O=C(Nc1nc2ccccc2s1)c1sc2cc([N+](=O)[O-])ccc2c1Cl`, the minimum inhibitory concentration (MIC) in the experiment on Enterococcus faecalis [10] is 16 µg/mL (≈ 41 µM).
As to `O=C(NN1C(=O)/C(=C/c2ccccc2)SC1c1cccc(F)c1)c1ccc(-c2ccccc2)cc1` (stereo not given), the MIC in the experiment with Escherichia coli [4] is 6.25 µg/mL (≈ 13 µM); against Pseudomonas aeruginosa [5], 12.5 µg/mL (≈ 26 µM); in the experiment with Staphylococcus aureus [6], 6.25 µg/mL (≈ 13 µM); against Bacillus subtilis [7] it was 3.12 µg/mL (≈ 6.49 µM).
In the case of `O=[N+]([O-])c1ccc(-c2csc(-c3cccc(-c4csc(-c5ccccc5)n4)c3)n2)cc1`, the MIC in the experiment with Enterococcus faecalis [16] amounted to 62 µg/mL (≈ 140 µM); in experiment [17], 32 µg/mL (≈ 72.5 µM). Further, in the experiment with Enterococcus faecalis [18], the MBIC was 0.002 mg/mL.
Take `NCCn1cc(-c2nc(-c3c[nH]c4ccccc34)cs2)c2cc(Br)ccc21`: the concentration for half-maximal inhibition (IC50) in the experiment on Staphylococcus aureus [1] came to 4.4 µg/mL (≈ 10.1 µM); with Staphylococcus aureus [2] it was 3.3 µg/mL (≈ 7.55 µM). Further, it took 7.8 µg/mL (≈ 17.8 µM) to inhibit growth against Pseudomonas aeruginosa [3] (MIC).
As for `COc1ccccc1/C=N\n1c(S)nnc1-c1sc(-c2ccccc2)nc1C`, the minimum inhibitory concentration (MIC) against Staphylococcus aureus [8] was found to be 31.2 µg/mL (≈ 76.6 µM); in the experiment on Listeria monocytogenes, 1.9 µg/mL (≈ 4.66 µM); in the experiment on Pseudomonas aeruginosa [9] it was 1.9 µg/mL (≈ 4.66 µM); in the experiment with Salmonella typhimurium, 62.5 µg/mL (≈ 153 µM).
In the experiment with Enterococcus faecalis [16], `NC(=O)c1cc(-c2csc(-c3cccc(-c4csc(-c5ccccc5)n4)c3)n2)ccc1O` registered an MIC of 250 µg/mL (≈ 549 µM). For the same compound, the MBIC with Enterococcus faecalis [18] was found to be 0.008 mg/mL.
As to `O=c1oc2c(Br)cc(Br)cc2cc1-c1csc(N/N=C/c2cn(-c3nc4ccccc4s3)nc2-c2cc3ccccc3oc2=O)n1`, the minimum inhibitory concentration (MIC) in the experiment with Staphylococcus aureus [11] is greater than 125 µg/mL; with Bacillus subtilis [12], 3.9 µg/mL (≈ 5.05 µM); with Pseudomonas aeruginosa [13] it was greater than 125 µg/mL; in the experiment with Staphylococcus aureus [14] it was 7.8 µg/mL (≈ 10.1 µM); with Micrococcus luteus, greater than 125 µg/mL; with Raoultella planticola it was 7.8 µg/mL (≈ 10.1 µM). For the same compound, in the experiment on Escherichia coli [15], inhibition of growth (MIC) required 7.8 µg/mL (≈ 10.1 µM).
As to `c1ccc(-c2csc(-c3cccc(-c4csc(-c5ccccc5)n4)c3)n2)cc1`, the minimum inhibitory concentration (MIC) in the experiment on Enterococcus faecalis [16] stood at 125 µg/mL (≈ 315 µM); in experiment [17] it was 32 µg/mL (≈ 80.7 µM). The MBIC with Enterococcus faecalis [18] was determined as 0.002 mg/mL.
Regarding `NCCn1cc(-c2nc(-c3c[nH]c4ccccc34)cs2)c2cc(F)ccc21`, the IC50 in the experiment on Staphylococcus aureus [1] was found to be 1.5 µg/mL (≈ 3.98 µM); in the experiment with Staphylococcus aureus [2], 6.3 µg/mL (≈ 16.7 µM). The MIC with Pseudomonas aeruginosa [3] was 4.5 µg/mL (≈ 12 µM).
For `O=c1oc2ccc3ccccc3c2cc1-c1csc(N/N=C/c2cn(-c3nc4ccccc4s3)nc2-c2cc3ccccc3oc2=O)n1`, the MIC against Staphylococcus aureus [11] was 7.8 µg/mL (≈ 11.7 µM); in the experiment with Bacillus subtilis [12], 15.6 µg/mL (≈ 23.5 µM); with Pseudomonas aeruginosa [13] it was greater than 125 µg/mL; against Staphylococcus aureus [14], 7.8 µg/mL (≈ 11.7 µM); in the experiment with Micrococcus luteus, greater than 125 µg/mL; against Raoultella planticola, 7.8 µg/mL (≈ 11.7 µM). The lowest concentration to inhibit growth in the experiment on Escherichia coli [15] (MIC) was 7.8 µg/mL (≈ 11.7 µM).
As to `NCCn1cc(-c2nc(-c3c[nH]c4ccccc34)cs2)c2ccccc21`, the values for the IC50 in the experiment with Staphylococcus aureus [1] and in the experiment on Staphylococcus aureus [2] were 4.7 µg/mL (≈ 13.1 µM) and 9.7 µg/mL (≈ 27.1 µM), respectively. In the experiment with Pseudomonas aeruginosa [3], this compound showed an MIC of 22.7 µg/mL (≈ 63.3 µM).

Source of the values: ChEMBL document CHEMBL4725221, “Thiazoles, Their Benzofused Systems, and Thiazolidinone Derivatives: Versatile and Promising Tools to Combat Antibiotic Resistance” (J Med Chem, 2020).
